Key:
Assay in all cases: Bliss excess, mean over the matrix (fraction); higher = more synergy
[1] = test system: KARPAS-45 (T-Lymphoblastic Leukemia)
In short: (§1)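 After 24 hours at 37°C and 5% CO2 in 1536-well plates, cells in DMEM/F12 or RPMI plus 10% FBS received two-drug dose matrices for 72 hours. Viability came from CellTiter-Glo 2.0 luminescence and was scaled as inhibition, anchored at 0 by vehicle wells and at 1 by blank wells. Combination Emax is taken as the second-highest inhibition in the matrix, and Bliss excess as the observed combination effect less EA + EB − EA·EB, with EA and EB the single-agent effects.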

[2] = test system: SW1417 (Colorectal Carcinoma)
In short: as §1

[3] = test system: SU-DHL-8 (B-Cell Non-Hodgkin's Lymphoma)
In short: as §1

[4] = test system: MOLT-16 (T-Lymphoblastic Leukemia)
In short: as §1

ES1 (Ewing's Sarcoma) = test system: ES1 (Ewing's Sarcoma)
In short: as §1

[5] = test system: P12-ICHIKAWA (T-Lymphoblastic Leukemia)
In short: as §1

[6] = test system: HL-60 (Acute Myeloid Leukemia)
In short: as §1

[7] = test system: DND-41 (T-Lymphoblastic Leukemia)
In short: as §1

[8] = test system: GR-ST (B-Lymphoblastic Leukemia)
In short: as §1

[9] = test system: PANC-08-13 (Pancreatic Carcinoma)
In short: as §1

[10] = test system: MS751 (Cervical Carcinoma)
In short: as §1

NCI-H2818 (Mesothelioma) = test system: NCI-H2818 (Mesothelioma)
In short: as §1

[11] = test system: SR (Other Blood Carcinomas)
In short: as §1

[12] = test system: BFTC-905 (Bladder Carcinoma)
In short: as §1

LN-18 (Glioblastoma) = test system: LN-18 (Glioblastoma)
In short: as §1

[13] = test system: BL-41 (Burkitt's Lymphoma)
In short: as §1

WIL2-NS (Non-Cancerous) = test system: WIL2-NS (Non-Cancerous)
In short: as §1

[14] = test system: KCL-22 (Chronic Myelogenous Leukemia)
In short: as §1

ES8 (Ewing's Sarcoma) = test system: ES8 (Ewing's Sarcoma)
In short: as §1

[15] = test system: K-562 (Chronic Myelogenous Leukemia)
In short: as §1

Compound	Bliss excess [1]	Bliss excess [2]	Bliss excess [3]	Bliss excess [4]	Bliss excess (ES1 (Ewing's Sarcoma))	Bliss excess [5]	Bliss excess [6]	Bliss excess [7]	Bliss excess [8]	Bliss excess [9]	Bliss excess [10]	Bliss excess (NCI-H2818 (Mesothelioma))	Bliss excess [11]	Bliss excess [12]	Bliss excess (LN-18 (Glioblastoma))	Bliss excess [13]	Bliss excess (WIL2-NS (Non-Cancerous))	Bliss excess [14]	Bliss excess (ES8 (Ewing's Sarcoma))	Bliss excess [15]
COc1nnc2ccc(N3CCC(c4ccc(OCCN5CCN(C)C(=O)[C@H]5C)cc4)CC3)nn12 [AZD5153] + CC1(C)CCC(CN2CCN(c3ccc(C(=O)NS(=O)(=O)c4ccc(NCC5CCOCC5)c([N+](=O)[O-])c4)c(Oc4cnc5[nH]ccc5c4)c3)CC2)=C(c2ccc(Cl)cc2)C1 [Venetoclax] (first compound max 1 µM, 7x7, partner max 1 µM)	0.0433	-0.0485	-0.0486	0.0309	-0.0896	-0.0389	-0.0379	0.0352	-0.0399	0.0065	-0.0752	-0.0487	-0.0209	-0.0577	0.0348	-0.0551	-0.0495	-0.0343	-0.0594	-0.0494
Cc1c2c(nn1C)CSCc1cc(n(C)n1)CSc1cc(c3ccccc3c1)OCCCc1c(C(=O)O)n(C)c3c-2c(Cl)ccc13 [AZD5991] + Cn1cnc2c(F)c(Nc3ccc(Br)cc3Cl)c(C(=O)NOCCO)cc21 [Selumetinib] (first compound max 1 µM, 7x7, partner max 3 µM)	0.011	-0.0015	-0.074	-0.0205	0.0123	0.0419	0.0587	0.021	-0.0495	0.0025	0.067	-0.0458	-0.0007	0.0136	0.0745	-0.0206	-0.0263	0.078	-0.0171	0.0393
CN(CCO)CC[C@H](CSc1ccccc1)Nc1ccc(S(=O)(=O)NC(=O)c2ccc(N3CCC([C@@H](O)c4ccccc4-c4ccc(Cl)cc4)CC3)cc2)cc1S(=O)(=O)C(F)(F)F [AZD4320] + CN(C)CCCOc1ccc(-c2ccc3ncc4c(c3c2)n(C2CCOCC2)c(=O)n4C)cn1 [AZD0156] (first compound max 1 µM, 7x7, partner max 1 µM)	-0.0326	-0.0567	-0.044	-0.0592	-0.0129	0.024	0.0228	-0.0036	-0.0358	-0.0051	-0.0248	-0.0501	0.0454	-0.017	-0.0015	0.0153	0.0109	0.0373	0.0079	-0.0027
Cc1c2c(nn1C)CSCc1cc(n(C)n1)CSc1cc(c3ccccc3c1)OCCCc1c(C(=O)O)n(C)c3c-2c(Cl)ccc13 [AZD5991] + CC1(C)CCC(CN2CCN(c3ccc(C(=O)NS(=O)(=O)c4ccc(NCC5CCOCC5)c([N+](=O)[O-])c4)c(Oc4cnc5[nH]ccc5c4)c3)CC2)=C(c2ccc(Cl)cc2)C1 [Venetoclax] (first compound max 1 µM, 7x7, partner max 1 µM)	0.141	-0.0294	0.0491	0.063	0.0817	0.0268	0.0723	0.044	-0.0484	-0.0411	0.0031	-0.0489	0.0732	-0.0016	-0.0167	0.0108	-0.0302	0.0111	0.0936	-0.003
CS(=O)(=O)CCNCc1ccc(-c2ccc3ncnc(Nc4ccc(OCc5cccc(F)c5)c(Cl)c4)c3c2)o1 [Lapatinib] + C[C@@H](Oc1cc(-c2cnn(C3CCNCC3)c2)cnc1N)c1c(Cl)ccc(F)c1Cl [Crizotinib] (first compound max 10 µM, 7x7, partner max 10 µM)	0.0044	-0.0165	0.0546	0.0062	-0.0346	-0.0077	0.019	-0.0272	-0.025	-0.0246	0.0207	-0.0019	0.019	-0.0525	-0.0342	-0.0236	-0.0273	0.0178	-0.0424	-0.0453
CC1(C)CCC(CN2CCN(c3ccc(C(=O)NS(=O)(=O)c4ccc(NCC5CCOCC5)c([N+](=O)[O-])c4)c(Oc4cnc5[nH]ccc5c4)c3)CC2)=C(c2ccc(Cl)cc2)C1 [Venetoclax] + Cn1cnc2c(F)c(Nc3ccc(Br)cc3Cl)c(C(=O)NOCCO)cc21 [Selumetinib] (first compound max 1 µM, 7x7, partner max 3 µM)	0.0372	-0.0165	-0.0738	0.016	-0.0068	0.0233	0.0694	-0.0048	-0.0318	-0.0627	0.0072	-0.0491	0.0026	-0.0116	-0.0088	0.0065	-0.0318	-0.0032	-0.0411	-0.0074
CN(CCO)CC[C@H](CSc1ccccc1)Nc1ccc(S(=O)(=O)NC(=O)c2ccc(N3CCC([C@@H](O)c4ccccc4-c4ccc(Cl)cc4)CC3)cc2)cc1S(=O)(=O)C(F)(F)F [AZD4320] + Cc1cc2ncnn2cc1Nc1ncc2c(n1)n(C1CCOCC1)c(=O)n2C [AZD7648] (first compound max 1 µM, 7x7, partner max 10 µM)	0.042	-0.0426	-0.0255	-0.0059	-0.0222	-0.002	0.0074	-0.0011	-0.0157	-0.042	-0.0353	-0.0715	-0.0189	-0.0375	0.0064	0.0115	-0.029	0.0444	-0.0594	-0.0332
NC1(C(=O)N[C@@H](CCO)c2ccc(Cl)cc2)CCN(c2ncnc3[nH]ccc23)CC1 [Capivasertib] + Cn1cnc2c(F)c(Nc3ccc(Br)cc3Cl)c(C(=O)NOCCO)cc21 [Selumetinib] (first compound max 10 µM, 7x7, partner max 10 µM)	0.0796	0.0152	-0.0214	0.0683	0.0724	0.15	0.021	0.0293	-0.0428	0.0495	0.0024	-0.0014	0.0682	-0.0047	0.0373	0.0106	0.0482	0.117	-0.0548	0.0713
NC1(C(=O)N[C@@H](CCO)c2ccc(Cl)cc2)CCN(c2ncnc3[nH]ccc23)CC1 [Capivasertib] + CC(=O)c1c(C)c2cnc(Nc3ccc(N4CCNCC4)cn3)nc2n(C2CCCC2)c1=O [Palbociclib] (first compound max 10 µM, 7x7, partner max 10 µM)	0.0327	0.0067	0.0646	-0.0011	0.0697	-0.0096	-0.0406	-0.0146	-0.0067	-0.0151	-0.0222	-0.0025	0.0289	0.0048	0.0368	-0.0275	-0.0049	0.0438	0.0848	0.0122
CN(CCO)CC[C@H](CSc1ccccc1)Nc1ccc(S(=O)(=O)NC(=O)c2ccc(N3CCC([C@@H](O)c4ccccc4-c4ccc(Cl)cc4)CC3)cc2)cc1S(=O)(=O)C(F)(F)F [AZD4320] + Cn1cnc2c(F)c(Nc3ccc(Br)cc3Cl)c(C(=O)NOCCO)cc21 [Selumetinib] (first compound max 1 µM, 7x7, partner max 3 µM)	-0.0248	0.056	-0.102	-0.0335	0.0147	0.0748	0.0259	-0.0181	-0.0417	0.0195	0.0636	-0.0136	0.0208	-0.0411	0.031	0.039	0.0074	0.0271	-0.0479	0.0465
Cc1c2c(nn1C)CSCc1cc(n(C)n1)CSc1cc(c3ccccc3c1)OCCCc1c(C(=O)O)n(C)c3c-2c(Cl)ccc13 [AZD5991] + C[C@@H]1COCCN1C2=NC(=NC(=C2)C3(CC3)[S@](=N)(=O)C)C4=C5C=CNC5=NC=C4 [AZD6738] (first compound max 1 µM, 7x7, partner max 10 µM)	0.0077	-0.0352	0.0814	0.0043	0.0292	0.0312	-0.0069	0.0215	-0.129	0.0337	0.0565	0.0148	0.0941	0.0113	0.037	-0.0045	-0.0025	-0.0163	0.0029	-0.0091
Cc1c2c(nn1C)CSCc1cc(n(C)n1)CSc1cc(c3ccccc3c1)OCCCc1c(C(=O)O)n(C)c3c-2c(Cl)ccc13 [AZD5991] + C1CN(CCC1(C(=O)N[C@@H](CCO)C2=CC=C(C=C2)Cl)N)C3=NC=NC4=C3C=CN4 [Capivasertib] (first compound max 1 µM, 7x7, partner max 3 µM)	0.0484	-0.0021	-0.0225	-0.0113	0.0708	0.039	-0.0315	0.0038	-0.0244	-0.0235	0.0425	0.0054	0.0447	0.0226	0.0306	0.0066	-0.0169	0.0067	0.0627	0.0462

— the supplement of paper PMC11061612
